Measurements reported in patent US20250388592A1 (REMYND N.V., priority 2022, published 2025).

Tested on: M17_3TAU(P301L) cells
Assay: TAU-induced cytotoxicity (LDH) in the neuroblastoma tauopathy model
Type: cell-based
Conditions: Homo sapiens, 168 h, inhibition of TAU-induced toxicity, 7 days retinoic acid differentiation, LDH readout
Excerpt: A TAU expression plasmid was constructed by sub-cloning the cDNA encoding for human TAU-P301L protein, wherein proline at position 301 is substituted by a leucine residue, into mammalian expression vector pcDNA3.1 resulting in the plasmid pcDNA3.1-TAUP301L. Plasmids pcDNA3.1 and pcDNA3.1-TAU P301L were transfected into human neuroblastoma cells (BE-M17; ATCC No. CRL-2267™) using lipofectamine reagent and subsequently, independent clonal cell lines with the plasmids stably integrated into the genome were selected by antibiotic resistance selection (Geneticin (G418)), resulting in cell lines M17.pcDNA3 and M17_3TAUP301L. Expression of the TAUP301 L gene in the M17_3TAUP301 L cells was confirmed by Western blot analysis.
Differentiation of the cells with RA leads to phosphorylation and subsequent aggregation of TAU, inducing a tauopathy in these cells. Cytotoxicity of cells was measured by quantification of lactate dehydrogenase (LDH) levels. In dead cells LDH is leaked out of the cells into the medium due to a loss of plasma-membrane integrity.
Briefly, 3 days preceding the experiment pre-cultures of M17.pcDNA3 and M17_3TAU(P301L) cells were prepared, starting from a stock culture, at a density of 50.000-100.000 cells/cm2 in detection medium (Optimem Reduced Serum without phenol red (Gibco, Cat. 31985-047) supplemented with 1% fetal calf serum (FCS), 1 mM sodium pyruvate, 1×non-essential amino acids (NEAA), 500 μg/ml G418 and 0.5×antibiotic/antimycotic (ABAM)). At the day of the experiment these precultures were diluted to ˜[…] in detection medium without FCS and 60 μL of this suspension is dispensed per well into a 96-well microtiter plate. After 3 hours of incubation at 37° C./5% C02 an equal volume of detection medium containing 2.5 μM RA was added and subsequently incubated for 7 days at 37° C./5% CO2. After 7 days, LDH activity was determined using the Promega Cytotox 96 Non-Radioactive cytotoxicity assay (Cat. G1780), according the manufacturer's instructions. Cytotoxicity is measured as the ratio of LDH increase in the supernatant divided by the LDH increase in the total cell suspension (sum of the LDH measured in cells and supernatant). Toxicity was determined after 7 days of differentiation with retinoic acid in M17_3TAU(P301 L) cells compared to M17.pcDNA3 cells.
The M17_3TAU(P301L) cell line makes it possible to assess the ability of novel compounds to inhibit TAU-induced cytotoxicity. […] Compounds were tested for their ability to hamper TAU-induced toxicity at different concentrations, ranging from low non-effective concentrations to high potent concentrations. Afterwards, the dose-dependent inhibition curve was used to calculate their EC50 (Table 3B).

SMILES | EC50 [nM]
Cc1nc(CN2CC3(C2)CN(C(=O)OC2CCC(F)(F)CC2)C3)co1 [Cpd B143] | 109
O=C(OCC1CCC(F)(F)CC1)N1CC2(CN(Cc3ccc(F)cc3)C2)C1 [Cpd B132] | 3.16
CCCN1CC2(C1)CN(C(=O)Cc1ccc(Cl)cc1)C2 [Cpd B042, 2-(4-chlorophenyl)-1-(6-propyl-2,6-diazaspiro[3.3]heptan-2-yl)ethanone] | 32.8
O=C(CC1CCC(F)(F)CC1)N1CC2(CN(Cc3ccc(Cl)cn3)C2)C1 [Cpd B113] | 12.3
Cc1cccnc1CN1CC2(C1)CN(C(=O)CC1CCCC1)C2 [Cpd B437] | 354
O=C(NC1CCC(F)(F)CC1)N1CC2(CN(Cc3ncccc3C(F)(F)F)C2)C1 [Cpd B206] | 31
COc1cccc(OC)c1CNC1CC2(C1)CC(Nc1nc(Cc3ccc(Cl)cc3)ns1)C2 (stereo not drawn) [Cpd B311, N-(3-(4-chlorobenzyl)-1,2,4-thiadiazol-5-yl)-N′-(2,6-dimethoxybenzyl) spiro[3.3]heptane-2,6-diamine] | 4
FC(F)(F)c1cccc(CNC2CC3(C2)CC(Nc2nc(Cc4ccc(Cl)cc4)ns2)C3)c1 (stereo not drawn) [Cpd B325, N-(3-(4-chlorobenzyl)-1,2,4-thiadiazol-5-yl)-N′-(3-(trifluoromethyl)benzyl) spiro[3.3]heptane-2,6-diamine] | 36.2
Cc1cccnc1CN1CC2(C1)CN(C(=O)Nc1ccc(Cl)cc1)C2 [Cpd B179] | 16.1
Cc1cccnc1CN1CC2(C1)CN(C(=O)Cc1ccccc1F)C2 [Cpd B436] | 389
Cc1cnc(CN2CC3(C2)CN(C(=O)NCc2ccc(F)cc2)C3)s1 [Cpd B440] | 260
O=C(NCC1CCOCC1)N1CC2(CN(Cc3ccc(F)cc3)C2)C1 [Cpd B169] | 881
Cn1cc(CN2CC3(C2)CN(C(=O)NCc2ccc(F)cc2)C3)cn1 [Cpd B405] | 4820
COc1ccc(CNC2CC3(C2)CC(Nc2nc(Cc4ccc(Cl)cc4)ns2)C3)cc1 (stereo not drawn) [Cpd B318, N-(3-(4-chlorobenzyl)-1,2,4-thiadiazol-5-yl)-N′-(4-methoxybenzyl) spiro[3.3]heptane-2,6-diamine] | 10.1
COc1ccc(CCN2CC3(C2)CN(C(=O)Cc2ccc(Cl)cc2)C3)cc1 [Cpd B046, 2-(4-chlorophenyl)-1-(6-(4-methoxyphenethyl)-2,6-diazaspiro[3.3]heptan-2-yl)ethanone] | 4.11
FC(F)(F)c1ccccc1CNC1CC2(C1)CC(Nc1nc(Cc3ccc(Cl)cc3)ns1)C2 (stereo not drawn) [Cpd B322, N-(3-(4-chlorobenzyl)-1,2,4-thiadiazol-5-yl)-N′-(2-(trifluoromethyl)benzyl) spiro[3.3]heptane-2,6-diamine] | 2.8
Cn1ncc(CN2CC3(C2)CN(C(=O)OCC2CCC(F)(F)CC2)C3)c1Cl [Cpd B158] | 65.3
Cc1cccnc1CN1CC2(C1)CN(C(=O)c1cccc3cc[nH]c13)C2 [Cpd B086] | 437
O=C(Cc1ccc(F)cc1)NC1CC2(CC(NCc3ccccc3)C2)C1 (stereo not drawn) [Cpd B066, N-(6-(benzylamino)spiro[3.3]heptan-2-yl)-2-(4-fluorophenyl)acetamide] | 130
O=C(NCC1CCC(F)(F)CC1)N1CC2(CN(Cc3c(F)cccc3C(F)(F)F)C2)C1 [Cpd B459] | 64.8
O=S(=O)(c1ccc(OC(F)(F)F)cc1)N1CC2(CN(Cc3ccc(F)cc3)C2)C1 [Cpd B217] | 0.46
O=C(Cc1ccc(Cl)cc1)N1CC2(CN(Cc3cscn3)C2)C1 [Cpd B043, 2-(4-chlorophenyl)-1-(6-(thiazol-4-ylmethyl)-2,6-diazaspiro[3.3]heptan-2-yl)ethanone] | 79.5
O=C(Cc1ccc(Cl)cc1)N1CC2(CN(Cc3ccc(Cl)cc3)C2)C1 [Cpd B004, 1-(6-(4-chlorobenzyl)-2,6-diazaspiro[3.3]heptan-2-yl)-2-(4-chlorophenyl)ethanone] | 2.86
Cc1ccc(CN2CC3(C2)CN(C(=O)Cc2ccc(F)cc2)C3)cc1 [Cpd B009, 2-(4-Fluoro-phenyl)-1-[6-(4-methyl-benzyl)-2,6-diaza-spiro[3.3]hept-2-yl]-ethanone] | 1.06
Cc1nc(CN2CC3(C2)CN(C(=O)Cc2ccc(F)cc2)C3)cs1 [Cpd B019, 2-(4-Fluoro-phenyl)-1-[6-(2-methyl-thiazol-4-ylmethyl)-2,6-diaza-spiro[3.3]hept-2-yl]-ethanone] | 71.8
O=C(Cc1ccc(F)cc1)N1CC2(CN(Cc3ccccc3)C2)C1 [Cpd B002, 1-(6-benzyl-2,6-diazaspiro[3.3]heptan-2-yl)-2-(4-fluorophenyl)ethanone] | 9.52

SMILES | EC50 [nM]
COc1cccc(CN2CC3(C2)CN(C(=O)Nc2ccc(OC(F)F)cc2)C3)c1 [Cpd B186] | 34
CC(C)CCN1CC2(C1)CN(C(=O)Cc1ccc(Cl)cc1)C2 [Cpd B053, 2-(4-chlorophenyl)-1-(6-isopentyl-2,6-diazaspiro[3.3]heptan-2-yl)ethanone] | 5.07
Cc1nc(CN2CC3(C2)CN(C(=O)OCC2CCC(F)(F)CC2)C3)cs1 [Cpd B156] | 83.3
O=C(COc1ccc(F)cc1)N1CC2(CN(Cc3ccc(F)cc3)C2)C1 [Cpd B098] | 71.5
O=C(OCC1CCC(F)(F)CC1)N1CC2(CN(Cc3ncccc3Cl)C2)C1 [Cpd B160] | 3.68
Cn1cc(Cl)c(CN2CC3(C2)CN(C(=O)CC2CCC(F)(F)CC2)C3)n1 [Cpd B120] | 4.27
Cn1ccnc1CN1CC2(C1)CN(C(=O)Cc1ccc(F)cc1)C2 [Cpd B020, 2-(4-Fluoro-phenyl)-1-[6-(1-methyl-1H-imidazol-2-ylmethyl)-2,6-diaza-spiro[3.3]hept-2-yl]-ethanone] | 422
O=C(OCC1CCC(F)(F)CC1)N1CC2(CN(Cc3c(F)cccc3C(F)(F)F)C2)C1 [Cpd B448] | 120
COc1cccc(CN2CC3(C2)CN(C(=O)Nc2cccc(OC)c2)C3)c1 [Cpd B420] | 1210
O=C(Cc1ccccc1F)N1CC2(CN(Cc3ccc(F)cc3)C2)C1 [Cpd B093] | 74.6
Cc1cccc(CNC2CC3(C2)CC(Nc2nc(Cc4ccc(Cl)cc4)ns2)C3)c1 (stereo not drawn) [Cpd B324, N-(3-(4-chlorobenzyl)-1,2,4-thiadiazol-5-yl)-N′-(3-methylbenzyl) spiro[3.3]heptane-2,6-diamine] | 2.6
COc1cccc(CN2CC3(C2)CN(C(=O)CN(C)c2ccccc2)C3)c1 [Cpd B075] | 61.3
Cc1cccnc1CN1CC2(C1)CN(C(=O)CC1CCCCC1)C2 [Cpd B082] | 27.9
O=C(NC1CCCCC1)N1CC2(CN(Cc3ccc(F)cc3)C2)C1 [Cpd B454] | 76.6
O=C(NC1CCC(F)(F)CC1)N1CC2(CN(Cc3ccc(C(F)(F)F)cc3)C2)C1 [Cpd B460] | 63
O=C(CCC1CCCCC1)N1CC2(CN(Cc3ccc(F)cc3)C2)C1 [Cpd B089] | 2.93
CN(Cc1ccccc1)C1CC2(CC(NC(=O)Cc3ccc(F)cc3)C2)C1 (stereo not drawn) [Cpd B067, N-(6-(benzyl(methyl)amino)spiro[3.3]heptan-2-yl)-2-(4-fluorophenyl)acetamide] | 3.54
NC(=O)c1cccc(CN2CC3(C2)CN(C(=O)Cc2ccc(F)cc2)C3)c1 [Cpd B012, 3-{6-[2-(4-Fluoro-phenyl)-acetyl]-2,6-diaza-spiro[3.3]hept-2-ylmethyl}-benzamide] | 45.2
CC(C)(C(=O)c1ccccc1)N1CC2(CN(C(=O)Cc3ccc(Cl)cc3)C2)C1 [Cpd B050, 2-(6-(2-(4-chlorophenyl)acetyl)-2,6-diazaspiro[3.3]heptan-2-yl)-2-methyl-1-phenylpropan-1-one] | 72.8
Cc1cccnc1CN1CC2(C1)CN(S(=O)(=O)Cc1cccc(C(F)(F)F)c1)C2 [Cpd B212] | 4.94
O=C(Cc1ccc(Cl)cc1)N1CC2(CN(Cc3ccc(C(F)(F)F)o3)C2)C1 [Cpd B040, 2-(4-Chloro-phenyl)-1-[6-(5-trifluoromethyl-furan-2-ylmethyl)-2,6-diaza-spiro[3.3]hept-2-yl]-ethanone] | 40.4
Cc1nc(CN2CC3(C2)CN(C(=O)N(C)C2CCC(F)(F)CC2)C3)cs1 [Cpd B172] | 102
Cc1ncc(CN2CC3(C2)CN(C(=O)CC2CCC(F)(F)CC2)C3)s1 [Cpd B456] | 73.9
Cc1cccc(C(=O)N2CC3(CN(Cc4ncccc4C)C3)C2)c1 [Cpd B407] | 4310
Cc1cccnc1CN1CC2(C1)CN(C(=O)NC1CCC(F)(F)CC1)C2 [Cpd B171] | 77.8
